Assays:
Experiment in all cases: Test F preemergence test
Conditions in all cases: scale 0 to 100
large crabgrass = assay type: in vivo, Digitaria sanguinalis
Method in brief: (§1)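 Compounds in a non-phytotoxic solvent formulation with surfactant were applied before emergence after sowing, or, for sugarcane, also postemergence. Evaluation was visual, against controls, after 14 to 21 greenhouse days.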

green foxtail = assay type: in vivo, Setaria viridis
Method in brief: as §1

goosegrass = assay type: in vivo, Eleusine indica
Method in brief: as §1

johnsongrass = assay type: in vivo, Sorghum halepense
Method in brief: as §1

pitted morningglory = assay type: in vivo, Ipomoea lacunosa
From the text: Seeds of plant species selected from bermudagrass (Cynodon dactylon), Surinam grass (Brachiaria decumbens), large crabgrass (Digitaria sanguinalis), green foxtail (Setaria viridis), goosegrass (Eleusine indica), johnsongrass (Sorghum halepense), kochia (Kochia scoparia), pitted morningglory (Ipomoea lacunosa), purple nutsedge (Cyperus rotundus), common ragweed (Ambrosia elation), mustard (Brassica nigra), guineagrass (Panicum maximum), […] (Paspalum dilatatum), barnyardgrass (Echinochloa crus-galli), southern sandbur (Cenchrus echinatus), common sowthistle (Sonchus oleraceous), prickly […] spinosa), Italian ryegrass (Lolium multiflorum), common purslane (Portulaca oleracea), broadleaf signalgrass (Brachiaria platyphylla), common groundsel (Senecio vulgaris), common chickweed (Stellaria media), Virginia dayflower (Commelina virginica), annual bluegrass (Poa annua), naked crabgrass (Digitaria nuda), […] cochinchinensis), quackgrass (Elytrigia repens), Canada horseweed (Conyza canadensis), field bindweed (Convolvulus arvensis), […] (Bidens bipinnata), common mallow (Malva sylvestris), Russian thistle (Salsola kali), and sugarcane (Saccharum officinarum) were planted and treated preemergence with test chemicals formulated in a non-phytotoxic solvent mixture which included a surfactant. At a different time, sugarcane was treated with postemergence applications of some of the test chemicals formulated in the same manner. Plants were approximately 3- to 4-leaf stage for the postemergence treatments. Treated plants and controls were maintained in a greenhouse for 14 to 21 days, after which time all species were compared to controls and visually evaluated. […] A dash (-) response means no test result.

purple nutsedge = assay type: in vivo, Cyperus rotundus
Method in brief: as §1

common ragweed = assay type: in vivo, Ambrosia elation
Method in brief: as §1

barnyardgrass = assay type: in vivo, Echinochloa crus-galli
Method in brief: as §1

southern sandbur = assay type: in vivo, Cenchrus echinatus
Method in brief: as §1

Italian ryegrass = assay type: in vivo, Lolium multiflorum
Method in brief: as §1

common purslane = assay type: in vivo, Portulaca oleracea
Method in brief: as §1

common groundsel = assay type: in vivo, Senecio vulgaris
Method in brief: as §1

annual bluegrass = assay type: in vivo, Poa annua
Method in brief: as §1

naked crabgrass = assay type: in vivo, Digitaria nuda
Method in brief: as §1

itchgrass = assay type: in vivo, Rottboellia cochinchinensis
Method in brief: as §1

field bindweed = assay type: in vivo, Convolvulus arvensis
Method in brief: as §1

Cn1nc(C(F)(F)F)c(C[S+]([O-])c2cccc[n+]2[O-])c1OCC(F)(F)F (racemic) [Compound 28]
Crabgrass, Large plant response rating (large crabgrass; 62 g ai/ha, Preemergence): 100
Crabgrass, Large plant response rating (large crabgrass; 125 g ai/ha, preemergence): 100
Plant response rating, Crabgrass, Large (large crabgrass; Preemergence, 16 g ai/ha): 30
Plant response rating, Crabgrass, Large (large crabgrass; Preemergence, 31 g ai/ha): 80
Foxtail, Green plant response rating (green foxtail; 62 g ai/ha, Preemergence): 100
Foxtail, Green plant response rating (green foxtail; 125 g ai/ha, preemergence): 100
Plant response rating, Foxtail, Green (green foxtail; Preemergence, 16 g ai/ha): 30
Plant response rating, Foxtail, Green (green foxtail; Preemergence, 31 g ai/ha): 80
Goosegrass plant response rating (goosegrass; 62 g ai/ha, Preemergence): 100
Goosegrass plant response rating (goosegrass; 125 g ai/ha, preemergence): 100
Plant response rating, Goosegrass (goosegrass; Preemergence, 16 g ai/ha): 65
Plant response rating, Goosegrass (goosegrass; Preemergence, 31 g ai/ha): 98
Johnsongrass plant response rating (johnsongrass; 62 g ai/ha, Preemergence): 100
Johnsongrass plant response rating (johnsongrass; 125 g ai/ha, preemergence): 100
Plant response rating, Johnsongrass (johnsongrass; Preemergence, 16 g ai/ha): 40
Plant response rating, Johnsongrass (johnsongrass; Preemergence, 31 g ai/ha): 75
Morningglory plant response rating (pitted morningglory; 62 g ai/ha, Preemergence): 100
Morningglory plant response rating (pitted morningglory; 125 g ai/ha, preemergence): 100
Plant response rating, Morningglory (pitted morningglory; Preemergence, 16 g ai/ha): 30
Plant response rating, Morningglory (pitted morningglory; Preemergence, 31 g ai/ha): 80
Purple Nutsedge plant response rating (purple nutsedge; 62 g ai/ha, Preemergence): 80
Purple Nutsedge plant response rating (purple nutsedge; 125 g ai/ha, preemergence): 90
Plant response rating, Purple Nutsedge (purple nutsedge; Preemergence, 16 g ai/ha): 0
Plant response rating, Purple Nutsedge (purple nutsedge; Preemergence, 31 g ai/ha): 25
Ragweed plant response rating (common ragweed; 62 g ai/ha, Preemergence): 80
Ragweed plant response rating (common ragweed; 125 g ai/ha, preemergence): 90
Plant response rating, Ragweed (common ragweed; Preemergence, 16 g ai/ha): 20
Plant response rating, Ragweed (common ragweed; Preemergence, 31 g ai/ha): 70
Barnyardgrass plant response rating (barnyardgrass; 62 g ai/ha, Preemergence): 100
Barnyardgrass plant response rating (barnyardgrass; 125 g ai/ha, preemergence): 100
Plant response rating, Barnyardgrass (barnyardgrass; Preemergence, 16 g ai/ha): 75
Plant response rating, Barnyardgrass (barnyardgrass; Preemergence, 31 g ai/ha): 100
Sandbur plant response rating (southern sandbur; 62 g ai/ha, Preemergence): 100
Sandbur plant response rating (southern sandbur; 125 g ai/ha, preemergence): 100
Plant response rating, Sandbur (southern sandbur; Preemergence, 31 g ai/ha): 90
Ryegrass, Italian plant response rating (Italian ryegrass; 62 g ai/ha, Preemergence): 100
Ryegrass, Italian plant response rating (Italian ryegrass; 125 g ai/ha, preemergence): 100
Plant response rating, Ryegrass, Italian (Italian ryegrass; Preemergence, 16 g ai/ha): 65
Plant response rating, Ryegrass, Italian (Italian ryegrass; Preemergence, 31 g ai/ha): 98
Purslane plant response rating (common purslane; 62 g ai/ha, Preemergence): 100
Purslane plant response rating (common purslane; 125 g ai/ha, preemergence): 100
Plant response rating, Purslane (common purslane; Preemergence, 16 g ai/ha): 0
Plant response rating, Purslane (common purslane; Preemergence, 31 g ai/ha): 60
Groundsel plant response rating (common groundsel; 62 g ai/ha, Preemergence): 100
Groundsel plant response rating (common groundsel; 125 g ai/ha, preemergence): 100
Plant response rating, Groundsel (common groundsel; Preemergence, 16 g ai/ha): 90
Plant response rating, Groundsel (common groundsel; Preemergence, 31 g ai/ha): 100
Bluegrass plant response rating (annual bluegrass; 62 g ai/ha, Preemergence): 65
Bluegrass plant response rating (annual bluegrass; 125 g ai/ha, preemergence): 100
Plant response rating, Bluegrass (annual bluegrass; Preemergence, 16 g ai/ha): 0
Plant response rating, Bluegrass (annual bluegrass; Preemergence, 31 g ai/ha): 40
Crabgrass, Naked plant response rating (naked crabgrass; 62 g ai/ha, Preemergence): 90
Crabgrass, Naked plant response rating (naked crabgrass; 125 g ai/ha, preemergence): 100
Plant response rating, Crabgrass, Naked (naked crabgrass; Preemergence, 16 g ai/ha): 65
Plant response rating, Crabgrass, Naked (naked crabgrass; Preemergence, 31 g ai/ha): 90
Itchgrass plant response rating (itchgrass; 62 g ai/ha, Preemergence): 95
Itchgrass plant response rating (itchgrass; 125 g ai/ha, preemergence): 100
Plant response rating, Itchgrass (itchgrass; Preemergence, 16 g ai/ha): 20
Plant response rating, Itchgrass (itchgrass; Preemergence, 31 g ai/ha): 35
Field Bindweed plant response rating (field bindweed; 62 g ai/ha, Preemergence): 80
Field Bindweed plant response rating (field bindweed; 125 g ai/ha, preemergence): 90
Plant response rating, Field Bindweed (field bindweed; Preemergence, 16 g ai/ha): 60
Plant response rating, Field Bindweed (field bindweed; Preemergence, 31 g ai/ha): 70
